Entries after “also recorded” stand apart in the source; their conditions may differ.
What was measured:
human THP-1 cells = experiment: Proliferation and apoptosis of THP-1 cells; type: cell-based; details: THP-1, 50 μM
From the text: (§1) Viable cells were counted by trypan blue exclusion at the indicated time points. To analyse cells undergoing apoptosis, cells were suspended in binding buffer containing PE-conjugated Annexin-V or FITC-conjugated Annexin-V, and either PI or DAPI.
(§2) To determine consequences of Daprodustat (2) and IOX5 (68, example 46) treatment on AML cells driven by the MLL-AF9→MEIS1/HOXA9 axis, mouse iMLL-AF9-and Meis1Hoxa9-transformed AML cells were employed, as well as human THP-1 cells, which harbour the MIL-AF9 translocation. […] Thus, providing compelling evidence that PHD inhibition compromises AML cells driven by the MLL-AF9→MEIS1/HOXA9 axis.

[1] = system: primary human AML cells (patient samples); experiment: Apoptosis of primary human AML patient samples; type: cell-based; details: 50 μM
Experimental: Frozen AML samples were retrieved from Barts Cancer Institute Biobank and quickly thawed at 37° C. Upon thawing, T cells were depleted from all samples using EasySep™ Human TCR Alpha/Beta Depletion Kit (Stem Cell Technologies, #17847). Enriched samples were plated in concentration 0.4-1.0×10^6/mL in Myelocult H5100 medium (Stem Cell Technologies, #05150) supplemented with 20 ng/ml IL-3, G-CSF and TPO (Biolegend) in co-culture with irradiated MS-5 cells and treated with 50 μM Dap, 50 μM IOX5 (68, example 46), 1 μM Venetoclax or vehicle control for 7 days. After 3 days of treatment, half the sample was used for plating CFU assays and initial analyses, the other half was given fresh medium containing the corresponding agent. After 7 days, viable cell numbers were counted, viability was assessed using Annexin V FITC/PI stain, cell cycle was measured using PI, and the expression of CD45, CD34, CD11b and CD14 was determined. CFC assays were counted 11 days after plating. Samples were deemed sensitive to treatment if either a decrease in viability or a decrease in proliferation, as validated by cell cycle phase distribution, was detected.
To investigate the clinical utility of PHD inhibition in human AML, it was next determined the impact of Dap or IOX5 (68, example 46) on AML patient samples (FIG. 29), focusing on poor-risk AML, which is characterised by a particularly low overall patient survival rate^73.
Finally, the clinical applicability of PHD inhibition in AML was validated by treating independent patient-derived primary AML cells with Daprodustat (2) and IOX5 (68, example 46). […] Taken together, Examples 163 to 167 provide genetic and pharmacological evidence that PHD inhibition is a plausible therapeutic strategy in AML.

[2] = system: BNIP3 mRNA in human AML cells; experiment: qPCR of BNIP3 (BAX, BAK) in human AML cells; type: cell-based; details: for BNIP3 mRNA expression: MOLM13, OCI-AML3, MV411 and THP-1 cells; for BNIP3, BAX and BAK transcripts (qPCR): MOLM-13 cells, 50 μM
Experimental: RNA was isolated using Direct-zol RNA Miniprep kit (Zymo Research, #R2051) and reverse transcribed using High-Capacity cDNA Reverse Transcription Kit (Applied Biosystems). For real-time quantitative PCR (qPCR), 5 ng of cDNA, 5 μL of PowerUp SYBR Green MasterMix (Applied Biosystems) and 2 pmol of primers were used per well of 384-well plate. Reactions were performed in triplicate using C1000 Thermocycler 384well (BioRad). Gene expression was quantified using comparative AA-Ct method and ACTB was used as the housekeeping gene. Data is expressed as log 2 fold change in comparison to control sample and represents results of three independent experiments measured in duplicate.
Given that the primary function of PHD2 is to promote HIF-α degradation, HIF-1α levels were measured following the treatment of AML cells with PHD inhibitors. […] To investigate whether HIF-α mediates the anti-leukaemic effects of PHD inhibition, Meis1/Hoxa9-transformed AML cells lacking both Hif1α and Hif2α and control cells were employed (Vukovic et al., 2015). […] Next, to investigate a molecular mechanism behind the anti-leukaemic effect of PHD inhibition, HIF-dependent transcripts that were dysregulated were interrogated via (68, example 46)-treatment in murine cells.

[3] = system: mouse iMLL-AF9- and Meis1Hoxa9-transformed AML cells; experiment: Proliferation and apoptosis of murine iMLL-AF9 and Meis1Hoxa9 AML cells; type: cell-based; details: 50 μM
From the text: as §1, §2

[4] = system: HIF-1α in MOLM13, OCI-AML3, MV411 and THP-1 cells; experiment: Western blot of HIF-1α in human AML cell lines; type: cell-based; details: for HIF-1α protein level (immunoblot): human AML cell lines, 50 μM, 48 hrs
Experimental: Total protein extracts (45 μg) were subjected to SDS-PAGE (NuPAGE™ 4-12% Bis-Tris Plus Gel, ThermoFisher Scientific, NP0323BOX) and then transferred onto a polyvinylidene difluoride membranes using wet transfer. Membranes were blocked in 5% milk-TBST (TBS with 0.1% Tween20) and probed with anti-HIF1-α (Novus Biological, NB100-105, 1:1000, ON at 4° C.) and anti-β-actin (Cell Signalling Technology, #3700, 1:10 000, ON at 4° C.). After incubation with appropriate horseradish peroxidase- coupled secondary antibody (Cell Signalling Technology, Anti-mouse IgG, #7076, 1:2000, 2 h at room temperature), proteins were detected with Clarity Western ECL Substrate (BioRad, #1705061) and acquired on the Amersham Imager 600 (GE Healthcare Life Sciences).
Equipped with currently available PHD inhibitors and newly generated IOX5 (68, example 46), the impact of pharmacological PHD inhibition on AML cells was assessed. […] Thus, while PHD inhibition consistently stabilises HIF-1α protein across all tested AML cell lines, HIF-2α stabilisation is variable and cell line-specific.

[5] = system: murine AML cells harbouring FLT3-ITD mutations (with and without NPM1 mutations), PML-RARα and AML1-ETO; experiment: Proliferation and apoptosis of murine AML cells with other drivers; type: cell-based, mouse
From the text: as §1
To validate the anti-leukaemic effect of PHD inhibition on AML cells transformed by drivers independent from the MLL/Meis1/Hoxa9 axis, murine AML cells harbouring FLT3-ITD mutations were employed (with and without NPM1 mutations), PML-RARα and AML1-ETO.

[6] = system: K562, OCI-AML3, KASUMI1, MV-4-11 and MOLM13 cells; experiment: Proliferation and apoptosis of human leukaemic cell lines; type: cell-based; details: 50 μM
From the text: as §1
To examine the impact of PHD inhibition in human leukaemia cells with other mutational backgrounds, different myeloid leukaemia cells were used, namely K562 (CML, with BCR-ABL translocation), OCL-AML3 cells (AML with DNMT3A, NRAS and NPM1 mutations), KASUMI1 cells (AML with AML-ETO translocation), MV-4-11 (AML with FLT3-ITD mutation), and MOLM13 (AML with FLT3-ITD mutation and MLL-AF9 translocation). […] Thus, multiple potent PHD inhibitors, with distinct mode of action, compromise leukaemic cells independently from their mutational status.

Row | Structure (SMILES) | apoptosis (human THP-1 cells) | proliferation (human THP-1 cells) | apoptosis of primary human AML cells [1] | BNIP3 mRNA expression [2] | BNIP3, BAX and BAK transcripts (qPCR) [2] | apoptosis [3] | proliferation [3] | HIF-1α protein level over time (western blot) ([4]; THP-1 cells, continuous treatment for 96 hours) | HIF-1α protein level (immunoblot) [4] | apoptosis (Annexin-V+DAPI+) [5] | proliferation [5] | apoptosis [6] | proliferation [6] | apoptosis of primary human AML cells ([1]; listed as Dap)
1 | O=C(NCC1CCC(C(F)(F)F)CC1)c1c[nH]c(-n2cccn2)cc1=O (centres unmarked) [IOX5] | induced their apoptosis | compromised their proliferative capacity | clearly increased apoptosis; also recorded: significantly increased primary human AML cell apoptosis | strongly induced BNIP3 expression | upregulation of BNIP3 was found, as well as its downstream effectors BAX and BAK | induced their apoptosis | compromised their proliferative capacity | substantially stabilised after 3-12 hours, its levels decreased between 24-48 hours, then increased 72-96 hours after treatment initiation | strongly stabilised HIF-1a; also recorded: increased HIF-1α levels | induced apoptosis | reduced the proliferative rate | induced their apoptosis | consistently compromised the proliferation | –
2 | O=C(O)CNC(=O)c1c(O)n(C2CCCCC2)c(=O)n(C2CCCCC2)c1=O [Daprodustat, daprodustat, reference compound] | induced their apoptosis | compromised their proliferative capacity | significantly increased primary human AML cell apoptosis | strongly induced BNIP3 expression | upregulation of BNIP3 was found, as well as its downstream effectors BAX and BAK | induced their apoptosis | compromised their proliferative capacity | – | strongly stabilised HIF-1a; also recorded: increased HIF-1α levels | induced apoptosis | reduced the proliferative rate | induced their apoptosis | consistently compromised the proliferation | clearly increased apoptosis

Reference: US20260027096A1, “PHD INHIBITORS” (Oxford University Innovation Limited, priority 2023, published 2026)
